Data: PubChem BioAssay (NCI)
“And” between values parts separate entries of the source, which are not always exact repeats. Identical values can stand only once.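 Interpolation was linear, between the two tested concentrations surrounding the appropriate level; five concentrations were tested over 48 hours in 96-well plates. At the GI50, growth is halved. TGI marks complete inhibition of growth.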

Key:
Experiment in all cases: NCI anticancer screen, dose series, 48 h
[1] = tested on: A498 renal
[2] = tested on: NCI-H23 lung
[3] = tested on: SK-OV-3 ovarian
[4] = tested on: UO-31 renal
[5] = tested on: SR leukemia
[6] = tested on: SK-MEL-2 melanoma
[7] = tested on: RPMI-8226 leukemia
[8] = tested on: NCI-H226 lung
[9] = tested on: BT-549 breast
[10] = tested on: MDA-MB-231 breast

Cc1c2cc[n+](C)cc2c(C)c2c1[nH]c1ccc(OC(C)(C)C)cc12
TGI [1]: > 100 µM | TGI [2]: > 100 µM | TGI [3]: > 100 µM | TGI [4]: > 100 µM | TGI [5]: > 100 µM | TGI [6]: > 100 µM | TGI [7]: > 100 µM | TGI [8]: > 100 µM

Clc1cc2ns[s+]c2cc1Cl
TGI [1]: > 100 µM | TGI [2]: > 100 µM | TGI [3]: > 100 µM | TGI [4]: > 91.7 µM | TGI [5]: > 100 µM | TGI [6]: > 100 µM | TGI [7]: > 100 µM | TGI [8]: > 100 µM

C/C=C1/CN2CCC34c5ccccc5N5C(=O)C(C6CC78c9ccccc9N9C(=O)C=CC(C%10CC7N6C/C%10=C/C)C98)=CC(C1CC23)C54 (stereo not given)
GI50 [1]: 10.7 µM | TGI [1]: 16.6 µM and 23.7 µM | GI50 [2]: 3.94 µM | TGI [2]: 13.1 µM and 15.5 µM | TGI [9]: 16.4 µM and 21.9 µM | GI50 [3]: 15.3 µM | TGI [3]: 19.1 µM and 29.7 µM | GI50 [4]: 5.87 µM | TGI [4]: 9.81 µM and 20.2 µM | TGI [5]: 50 µM | GI50 [6]: 12.3 µM | TGI [6]: 13.5 µM and 25.5 µM | GI50 [10]: 13.4 µM | TGI [10]: 8.36 µM and 29 µM | GI50 [8]: 24 µM | TGI [8]: 15 µM and 46 µM

Cc1cc(NCCCCCCCCNc2cc(C)nc3cc(N(C)C)ccc23)c2ccc(N(C)C)cc2n1
TGI [1]: 42.6 µM | TGI [2]: 15.2 µM | TGI [4]: > 100 µM | TGI [5]: 43.9 µM | TGI [7]: 17.2 µM

CN1C(=O)CC(CC(=O)C2CCCCC2=O)CC1=O (stereo not given)
TGI [1]: > 100 µM | TGI [2]: > 100 µM | TGI [3]: > 100 µM | TGI [4]: > 100 µM | TGI [5]: > 100 µM | TGI [7]: > 100 µM | TGI [8]: > 100 µM

O=C(Nc1ccn(C2CCC(COC(c3ccccc3)(c3ccccc3)c3ccccc3)O2)c(=O)n1)c1ccccc1 (stereo not given)
TGI [2]: 7.8 µM | TGI [3]: 26.3 µM | TGI [4]: 14.1 µM | TGI [5]: 4.82 µM | TGI [6]: 8.71 µM | TGI [10]: 13.9 µM | TGI [7]: 5.21 µM | TGI [8]: 18 µM

COc1ccc(NC(=O)CC2SC(=Nc3ccc(Cl)cc3C)NC2=O)c([N+](=O)[O-])c1 (stereo not given)
TGI [1]: > 100 µM | TGI [2]: > 100 µM | TGI [4]: > 100 µM | TGI [5]: > 100 µM | TGI [6]: > 100 µM | TGI [7]: > 100 µM | TGI [8]: > 100 µM

CCCCCCCCCCCCCC(=O)OCC1OC(=O)C(O)C1O (stereo not given)
TGI [1]: > 100 µM | TGI [2]: > 100 µM | TGI [3]: > 100 µM | TGI [4]: > 100 µM | TGI [5]: > 100 µM | TGI [7]: > 100 µM | TGI [8]: > 100 µM

CC(=O)OCc1cc[c]([Hg][Cl])o1
GI50 [2]: 12.1 µM | TGI [2]: 29.7 µM | GI50 [9]: 6.43 µM | TGI [9]: 19.3 µM | GI50 [3]: 22.5 µM | TGI [3]: 53.6 µM | GI50 [4]: 1.82 µM | TGI [4]: 3.45 µM | GI50 [5]: 0.619 µM | TGI [5]: 12.3 µM | GI50 [6]: 16.7 µM | TGI [6]: 32.2 µM | GI50 [10]: 2.59 µM | TGI [10]: 7.81 µM | GI50 [7]: 4.69 µM | TGI [7]: 34.9 µM | GI50 [8]: 19.4 µM | TGI [8]: 45.5 µM

COc1ccc(CC2OC3(CCCCC3)CC3CCCCN32)cc1 (stereo not given)
TGI [2]: > 100 µM | TGI [9]: > 100 µM | TGI [3]: > 100 µM | TGI [4]: > 100 µM | TGI [5]: > 100 µM | TGI [6]: > 100 µM | TGI [10]: > 100 µM | TGI [7]: > 100 µM | TGI [8]: > 100 µM

COC(=O)/C(=C1\OC(=O)C(c2ccc(Cl)cc2)=C1O)c1ccc(Cl)cc1
TGI [1]: 47.8 µM | TGI [2]: 40.3 µM | TGI [3]: 84.6 µM | TGI [4]: 68.9 µM | TGI [5]: 80.9 µM | TGI [7]: 55.2 µM | TGI [8]: 58.5 µM

O=C1/C(=C/c2ccc(C(=O)O)cc2)CNC/C1=C\c1ccc(C(=O)O)cc1
TGI [1]: > 100 µM | TGI [2]: > 100 µM | TGI [3]: > 100 µM | TGI [4]: > 100 µM | TGI [5]: > 100 µM | TGI [7]: > 100 µM | TGI [8]: > 100 µM

Nc1ncnc2c1ncn2Cc1ccc(CCl)cc1
GI50 [1]: 12.6 µM | TGI [1]: 31.9 µM | GI50 [2]: 17.5 µM | TGI [2]: 37.6 µM | GI50 [9]: 14.3 µM | TGI [9]: 28.7 µM | GI50 [3]: 19.7 µM | TGI [3]: 40.8 µM | GI50 [4]: 22.3 µM | TGI [4]: 46.8 µM | GI50 [6]: 32.6 µM | TGI [6]: 97.5 µM | GI50 [10]: 17.5 µM | TGI [10]: 35.8 µM | GI50 [7]: 15.1 µM | TGI [7]: > 100 µM | GI50 [8]: 20.6 µM | TGI [8]: 35.3 µM

COc1cc(OC)c(OC)cc1/C=C/c1ccc2ccccc2n1
TGI [2]: > 10 µM | TGI [9]: > 10 µM | TGI [3]: > 10 µM | TGI [5]: > 10 µM | TGI [10]: > 10 µM | TGI [7]: > 10 µM

O=S1c2ccccc2N=C(c2cccs2)CC1c1ccccc1O (stereo not given)
TGI [1]: 99.8 µM | TGI [2]: > 100 µM | TGI [3]: > 100 µM | TGI [4]: > 100 µM | TGI [6]: > 100 µM | TGI [7]: > 100 µM | TGI [8]: > 100 µM

C/C(COc1ccccc1)=N\NC(N)=S
TGI [1]: > 100 µM | TGI [2]: > 100 µM | TGI [3]: > 100 µM | TGI [4]: > 100 µM | TGI [5]: > 100 µM | TGI [6]: > 100 µM | TGI [7]: > 100 µM | TGI [8]: > 100 µM

Oc1ccc(Cl)cc1N=Nc1c(O)ccc2ccccc12
TGI [2]: > 100 µM | TGI [9]: > 100 µM | TGI [3]: > 100 µM | TGI [4]: > 100 µM | TGI [5]: > 100 µM | TGI [6]: > 100 µM | TGI [10]: > 100 µM | TGI [7]: > 100 µM | TGI [8]: > 100 µM

O=C(Nc1c(Cl)cccc1Cl)Oc1cccc2cccnc12
GI50 [1]: 7.99 µM | TGI [1]: 48 µM | GI50 [2]: 4.07 µM | TGI [2]: 45.5 µM | GI50 [9]: 8.85 µM | TGI [9]: 90 µM | GI50 [3]: 4.62 µM | TGI [3]: 39.4 µM | GI50 [4]: 2.74 µM | TGI [4]: 51.8 µM | GI50 [5]: 3.59 µM | TGI [5]: 30.4 µM | GI50 [10]: 4.24 µM | TGI [10]: 25.3 µM | GI50 [7]: 3.64 µM | TGI [7]: 47.7 µM | GI50 [8]: 4.57 µM | TGI [8]: 21.7 µM

NC1=NN(c2ccccc2)C(=O)C1/C(=N\NC(=O)c1cc2ccccc2cc1O)C(=O)Nc1ccc(Cl)c(Cl)c1 (stereo not given)
TGI [1]: > 100 µM | TGI [2]: 63.5 µM | TGI [4]: > 100 µM | TGI [5]: 5.71 µM | TGI [6]: > 100 µM | TGI [7]: > 100 µM | TGI [8]: > 100 µM

O=C(O)[C@@H](Cc1ccccc1)NS(=O)(=O)c1ccc(-c2ccccc2)cc1
GI50 [1]: 59.6 µM | TGI [1]: > 100 µM | GI50 [2]: > 100 µM | TGI [2]: > 100 µM | GI50 [9]: > 100 µM | TGI [9]: > 100 µM | GI50 [3]: > 100 µM | TGI [3]: > 100 µM | GI50 [4]: 24.9 µM | TGI [4]: 59.4 µM | GI50 [6]: > 100 µM | TGI [6]: > 100 µM | GI50 [10]: > 100 µM | TGI [10]: > 100 µM | GI50 [8]: > 100 µM | TGI [8]: > 100 µM

Cc1ccc(O)c(C(=O)/C=C/c2ccccc2)c1
TGI [2]: > 100 µM | TGI [9]: > 100 µM | TGI [3]: > 100 µM | TGI [4]: > 100 µM | TGI [5]: > 100 µM | TGI [6]: > 100 µM | TGI [10]: > 100 µM | TGI [7]: > 100 µM | TGI [8]: > 100 µM
